In the NIST ThermoML archive (doi:10.1021/je700362q):
Numbers after ± are expanded uncertainties.

Key:
[1] = 298.15 K; 101.33 kPa; Liquid; Vibrating tube method
[2] = refractive index (Na D-line) (dimensionless); details: 298.15 K; 101.33 kPa; Liquid; Standard Abbe refractometry

CCCCCCCCn1cc[n+](C)c1.O=S(=O)([N-]S(=O)(=O)C(F)(F)F)C(F)(F)F
mass density [1]: 1320.76 ± 12 kg/m3 | refractive index [2]: 1.43331 ± 0.0012

CCCCCCCC[n+]1ccn(C)c1.F[B-](F)(F)F [1-methyl-3-octylimidazolium tetrafluoroborate]
mass density [1]: 1104.42 ± 8.5 kg/m3 | refractive index [2]: 1.43329 ± 0.0012

CC1CCCCC1 [methylcyclohexane]
mass density [1]: 764.97 ± 0.31 kg/m3 | refractive index [2]: 1.42048 ± 0.00075

c1ccsc1 [thiophene]
mass density [1]: 1058.5 ± 0.15 kg/m3 | refractive index [2]: 1.52581 ± 0.00073
